Measured values as given in ChEMBL document CHEMBL5696439 (Cancer Res, 2010).
Calls of active or inactive are those of the source. The calls are words filed in the database; no cut-off is given here.

Experiments:
[1] = test system: LNCaP; assay: Antiproliferative activity against human LNCaP cells assessed as cell growth inhibition at 10 micromol/L incubated for 3 days by MTS assay relative to control; type: functional; conditions: 72 h, dose 10 µmol/L, time 3 day
[2] = test system: MDA-MB-361; assay: Antiproliferative activity against human MDA-MB-361 cells assessed as cell growth inhibition incubated for 2 days by MTS assay; type: functional, cell-based; conditions: MDA-MB-361, 48 h
[3] = test system: A549; assay: Antitumor activity against human A549 cells xenografted in female nude mouse model assessed as suppression in tumor growth at 25 mg/kg, po qd administered as 5 days on/2 days off regimen for 4 cycles relative to control; type: functional; conditions: time 28 day
[4] = test system: U-87 MG; assay: Antitumor activity against human U-87MG cells assessed as reduction in HIF-1alpha level at 0.025 to 2 micromol/L incubated for 6 hrs by immunoblot analysis; type: functional, cell-based; conditions: U-87MG ATCC, dose 0.025-2 µmol/L
[5] = test system: MDA-MB-361; assay: Induction of apoptosis in PI3K/mTOR hyperactive human MDA-MB-361 cells assessed as cell death at 0.001 to 100 micromol/L incubated for 24 hrs by FACS analysis; type: functional, cell-based; conditions: dose 0.001-100 µmol/L
[6] = target: Casein kinase I isoform gamma-3 (Homo sapiens) (UniProt Q9Y6M4); assay: Inhibition of recombinant human full-length GST-tagged CSNK1G3 expressed in insect cells at 2 uM using Ser/Thr 05 as substrate measured after 1 hr by Z'-LYTE assay relative to control; conditions: Insect cell
[7] = test system: U-87 MG; assay: Antiproliferative activity against human U-87MG cells assessed as cell growth inhibition at 10 micromol/L incubated for 3 days by MTS assay relative to control; type: functional, U-87MG ATCC; conditions: 72 h, dose 10 µmol/L, time 3 day
[8] = target: SRSF protein kinase 2 (Homo sapiens) (UniProt P78362); assay: Inhibition of recombinant human full length GST-tagged SRPK2 expressed in insect cells at 2 uM using Ser/Thr 07 as substrate measured after 1 hr by Z'-LYTE assay relative to control; conditions: Insect cell
[9] = target: Serine/threonine-protein kinase MARK2 (Homo sapiens) (UniProt Q7KZI7); assay: Inhibition of recombinant human full length GST-tagged MARK2 expressed in insect cells at 2 uM using Ser/Thr 21 as substrate measured after 1 hr by Z'-LYTE assay relative to control; conditions: Insect cell
[10] = target: Serine/threonine-protein kinase Nek7 (Homo sapiens) (UniProt Q8TDX7); assay: Inhibition of recombinant human His-tagged NEK7 (8-313 residues) expressed in insect cells at 2 uM using Ser/Thr 22 as substrate measured after 1 hr by Z'-LYTE assay relative to control; conditions: Insect cell
[11] = target: mTORC2 (Homo sapiens) (UniProt P42345+Q6R327+Q9BVC4+Q9BPZ7); conditions: U-87 MG, dose 0.025-2 µmol/L, time 6.0 hrs
[12] = target: Testis-specific serine/threonine-protein kinase 2 (Homo sapiens) (UniProt Q96PF2); assay: Inhibition of recombinant human full length His-tagged STK22B expressed in insect cells at 2 uM using Ser/Thr 04 as substrate measured after 1 hr by Z'-LYTE assay relative to control; conditions: Insect cell
[13] = target: Insulin-like growth factor 1 receptor (Homo sapiens) (UniProt P08069); assay: Inhibition of recombinant human His-tagged IGF1R (960-1397 residues) expressed in baculovirus expression system at 2 uM using Tyr 01 as substrate measured after 1 hr by Z'-LYTE assay relative to control
[14] = test system: HCT-116; assay: Antitumor activity against human HCT-116 cells xenografted in female nude mouse model assessed as suppression in P-S6K at T389 level at 50 mg/kg, iv administered once a week and measured at least 8 hrs by immunoblot analysis; type: functional, organism-based
[15] = test system: HT-29; assay: Antitumor activity against human HT-29 cells xenografted in female nude mouse model assessed as reduction in P-AKT at T308 level at 50 mg/kg, iv administered once a week and measured at least 8 hrs by immunoblot analysis; type: functional, organism-based
[16] = test system: MDA-MB-361; assay: Antiproliferative activity against human MDA-MB-361 cells assessed as cell growth inhibition incubated for 3 days by MTS assay; type: functional, cell-based; conditions: MDA-MB-361, 72 h
[17] = target: Dual specificity tyrosine-phosphorylation-regulated kinase 3 (Homo sapiens) (UniProt O43781); assay: Inhibition of recombinant human full-length GST-tagged DYRK3 expressed in insect cells at 2 uM using Ser/Thr 09 as substrate measured after 1 hr by Z'-LYTE assay relative to control; conditions: Insect cell
[18] = test system: A498; assay: cells; conditions: Homo sapiens, A498, 72 h
Description: Antiproliferative activity against human A498 cells assessed as cell growth inhibition incubated for 3 days by MTS assay

[19] = test system: MDA-MB-361; assay: Inhibition of protein synthesis in human MDA-MB-361 cells at 0.3 micromol/L incubated for 3 hrs by [3H] methionine incorporation based scintillation counter analysis relative to control; type: functional; conditions: MDA-MB-361, 3 h, dose 0.3 µmol/L
[20] = test system: NCI-H1975; assay: Induction of apoptosis in human NCI-H1975 cells assessed as increase in PARP cleavage at 0.3 to 3 micromol/L incubated for 48 hrs by Western blot analysis; type: functional, cell-based; conditions: dose 0.3-3 µmol/L
[21] = target: Serine/threonine-protein kinase PAK 5 (Homo sapiens) (UniProt Q9P286); assay: Inhibition of recombinant human His-tagged PAK7 (425-719 residues) expressed in baculovirus expression system at 2 uM using Ser/Thr 20 as substrate measured after 1 hr by Z'-LYTE assay relative to control
[22] = target: Vascular endothelial growth factor receptor 1 (Homo sapiens) (UniProt P17948); assay: Inhibition of recombinant human GST-tagged FLT1 (781-1338 residues) expressed in insect cells at 2 uM using Tyr 04 as substrate measured after 1 hr by Z'-LYTE assay relative to control; conditions: Insect cell
[23] = target: Tyrosine-protein kinase ABL1 (Homo sapiens) (UniProt P00519); assay: Inhibition of recombinant human full-length His-tagged ABL1 expressed in insect cells at 2 uM using Tyr 02 as substrate measured after 1 hr by Z'-LYTE assay relative to control; conditions: Insect cell
[24] = target: Serine/threonine-protein kinase Sgk2 (Homo sapiens) (UniProt Q9HBY8); assay: Inhibition of recombinant human GST-tagged SGK2 (54-427 residues) expressed in insect cells at 2 uM using Ser/Thr 06 as substrate measured after 1 hr by Z'-LYTE assay relative to control; conditions: Insect cell
[25] = test system: Receptor-type tyrosine-protein kinase FLT3 (Homo sapiens), P36888 [D835Y]; assay: Inhibition of recombinant human His-tagged FLT3 D835Y mutant (564-958 residues) expressed in insect cells at 2 uM using Tyr 02 as substrate measured after 1 hr by Z'-LYTE assay relative to control; conditions: Insect cell
[26] = target: Protein kinase C epsilon type (Homo sapiens) (UniProt Q02156); assay: Inhibition of recombinant human full length GST-tagged PRKCE expressed in insect cells at 2 uM using Ser/Thr 07 as substrate measured after 1 hr by Z'-LYTE assay relative to control; conditions: Insect cell
[27] = test system: NCI-H460; assay: Antiproliferative activity against human NCI-H460 cells assessed as cell growth inhibition incubated for 24 hrs by MTS assay; type: functional, cell-based; conditions: NCI-H460, 24 h

Tyrosine-protein kinase ABL1 (Homo sapiens), sequence (P00519 whole entry, the tested form may be a part): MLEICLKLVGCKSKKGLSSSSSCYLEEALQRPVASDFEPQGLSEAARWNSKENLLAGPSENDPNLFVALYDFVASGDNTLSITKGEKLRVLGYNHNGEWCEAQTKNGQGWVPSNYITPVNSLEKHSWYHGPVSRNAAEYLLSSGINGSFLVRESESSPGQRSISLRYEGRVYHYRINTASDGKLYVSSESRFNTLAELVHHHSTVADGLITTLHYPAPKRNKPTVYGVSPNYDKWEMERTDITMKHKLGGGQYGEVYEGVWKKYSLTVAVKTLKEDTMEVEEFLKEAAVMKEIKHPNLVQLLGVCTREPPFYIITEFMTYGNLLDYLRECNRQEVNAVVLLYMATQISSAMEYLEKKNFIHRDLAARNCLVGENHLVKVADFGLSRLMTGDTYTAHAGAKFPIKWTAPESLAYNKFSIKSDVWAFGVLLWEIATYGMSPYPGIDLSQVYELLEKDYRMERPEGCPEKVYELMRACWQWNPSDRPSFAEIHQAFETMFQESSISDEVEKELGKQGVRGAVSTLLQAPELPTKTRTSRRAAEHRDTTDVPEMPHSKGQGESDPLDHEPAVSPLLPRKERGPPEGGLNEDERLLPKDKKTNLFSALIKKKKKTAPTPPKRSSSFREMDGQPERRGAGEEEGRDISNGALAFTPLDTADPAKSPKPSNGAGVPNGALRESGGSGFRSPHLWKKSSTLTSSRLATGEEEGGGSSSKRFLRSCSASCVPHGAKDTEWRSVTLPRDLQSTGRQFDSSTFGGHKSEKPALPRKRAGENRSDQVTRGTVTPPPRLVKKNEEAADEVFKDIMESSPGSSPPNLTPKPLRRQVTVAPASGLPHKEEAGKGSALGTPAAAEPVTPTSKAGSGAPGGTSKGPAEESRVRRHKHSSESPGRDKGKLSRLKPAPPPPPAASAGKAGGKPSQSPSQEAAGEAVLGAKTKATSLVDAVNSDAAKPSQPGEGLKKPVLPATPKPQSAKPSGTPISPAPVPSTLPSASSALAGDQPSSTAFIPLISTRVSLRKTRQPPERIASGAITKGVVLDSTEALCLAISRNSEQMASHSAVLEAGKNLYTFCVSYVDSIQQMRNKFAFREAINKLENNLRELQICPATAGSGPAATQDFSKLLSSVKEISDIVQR
Casein kinase I isoform gamma-3 (Homo sapiens), sequence (Q9Y6M4 whole entry, looked up, canonical isoform): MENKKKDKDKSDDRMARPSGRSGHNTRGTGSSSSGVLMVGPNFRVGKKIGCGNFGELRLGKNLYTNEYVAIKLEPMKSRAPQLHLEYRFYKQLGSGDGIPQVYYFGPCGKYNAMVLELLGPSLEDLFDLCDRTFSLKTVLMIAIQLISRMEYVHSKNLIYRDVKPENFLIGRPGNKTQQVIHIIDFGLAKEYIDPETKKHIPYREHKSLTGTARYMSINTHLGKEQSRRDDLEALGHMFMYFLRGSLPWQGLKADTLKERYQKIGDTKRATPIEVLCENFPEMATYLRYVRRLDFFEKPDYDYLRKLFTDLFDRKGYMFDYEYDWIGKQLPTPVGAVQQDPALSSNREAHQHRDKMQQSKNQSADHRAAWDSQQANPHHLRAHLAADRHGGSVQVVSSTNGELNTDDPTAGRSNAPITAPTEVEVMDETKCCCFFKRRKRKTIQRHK
Serine/threonine-protein kinase MARK2 (Homo sapiens), sequence (Q7KZI7 whole entry, the tested form may be a part): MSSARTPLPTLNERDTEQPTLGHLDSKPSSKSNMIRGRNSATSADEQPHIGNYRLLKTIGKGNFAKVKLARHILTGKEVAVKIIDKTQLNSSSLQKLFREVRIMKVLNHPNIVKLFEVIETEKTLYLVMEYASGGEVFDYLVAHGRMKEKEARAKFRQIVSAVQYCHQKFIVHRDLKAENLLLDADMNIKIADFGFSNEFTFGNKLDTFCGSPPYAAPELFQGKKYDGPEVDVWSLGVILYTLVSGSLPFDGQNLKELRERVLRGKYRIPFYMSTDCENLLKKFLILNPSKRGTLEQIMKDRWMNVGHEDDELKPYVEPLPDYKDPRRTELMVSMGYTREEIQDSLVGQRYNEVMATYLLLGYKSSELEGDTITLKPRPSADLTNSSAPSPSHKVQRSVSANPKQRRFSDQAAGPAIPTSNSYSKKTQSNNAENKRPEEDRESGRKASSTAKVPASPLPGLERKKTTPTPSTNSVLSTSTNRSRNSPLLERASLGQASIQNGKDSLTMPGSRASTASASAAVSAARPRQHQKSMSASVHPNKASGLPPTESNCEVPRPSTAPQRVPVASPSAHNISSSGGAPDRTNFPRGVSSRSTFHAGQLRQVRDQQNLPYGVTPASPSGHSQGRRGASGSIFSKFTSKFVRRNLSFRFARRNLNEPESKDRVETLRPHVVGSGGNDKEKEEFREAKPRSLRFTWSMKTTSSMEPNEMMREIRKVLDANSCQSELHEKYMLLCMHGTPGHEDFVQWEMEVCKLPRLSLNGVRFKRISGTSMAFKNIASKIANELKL
Vascular endothelial growth factor receptor 1 (Homo sapiens), sequence (P17948 whole entry, the tested form may be a part): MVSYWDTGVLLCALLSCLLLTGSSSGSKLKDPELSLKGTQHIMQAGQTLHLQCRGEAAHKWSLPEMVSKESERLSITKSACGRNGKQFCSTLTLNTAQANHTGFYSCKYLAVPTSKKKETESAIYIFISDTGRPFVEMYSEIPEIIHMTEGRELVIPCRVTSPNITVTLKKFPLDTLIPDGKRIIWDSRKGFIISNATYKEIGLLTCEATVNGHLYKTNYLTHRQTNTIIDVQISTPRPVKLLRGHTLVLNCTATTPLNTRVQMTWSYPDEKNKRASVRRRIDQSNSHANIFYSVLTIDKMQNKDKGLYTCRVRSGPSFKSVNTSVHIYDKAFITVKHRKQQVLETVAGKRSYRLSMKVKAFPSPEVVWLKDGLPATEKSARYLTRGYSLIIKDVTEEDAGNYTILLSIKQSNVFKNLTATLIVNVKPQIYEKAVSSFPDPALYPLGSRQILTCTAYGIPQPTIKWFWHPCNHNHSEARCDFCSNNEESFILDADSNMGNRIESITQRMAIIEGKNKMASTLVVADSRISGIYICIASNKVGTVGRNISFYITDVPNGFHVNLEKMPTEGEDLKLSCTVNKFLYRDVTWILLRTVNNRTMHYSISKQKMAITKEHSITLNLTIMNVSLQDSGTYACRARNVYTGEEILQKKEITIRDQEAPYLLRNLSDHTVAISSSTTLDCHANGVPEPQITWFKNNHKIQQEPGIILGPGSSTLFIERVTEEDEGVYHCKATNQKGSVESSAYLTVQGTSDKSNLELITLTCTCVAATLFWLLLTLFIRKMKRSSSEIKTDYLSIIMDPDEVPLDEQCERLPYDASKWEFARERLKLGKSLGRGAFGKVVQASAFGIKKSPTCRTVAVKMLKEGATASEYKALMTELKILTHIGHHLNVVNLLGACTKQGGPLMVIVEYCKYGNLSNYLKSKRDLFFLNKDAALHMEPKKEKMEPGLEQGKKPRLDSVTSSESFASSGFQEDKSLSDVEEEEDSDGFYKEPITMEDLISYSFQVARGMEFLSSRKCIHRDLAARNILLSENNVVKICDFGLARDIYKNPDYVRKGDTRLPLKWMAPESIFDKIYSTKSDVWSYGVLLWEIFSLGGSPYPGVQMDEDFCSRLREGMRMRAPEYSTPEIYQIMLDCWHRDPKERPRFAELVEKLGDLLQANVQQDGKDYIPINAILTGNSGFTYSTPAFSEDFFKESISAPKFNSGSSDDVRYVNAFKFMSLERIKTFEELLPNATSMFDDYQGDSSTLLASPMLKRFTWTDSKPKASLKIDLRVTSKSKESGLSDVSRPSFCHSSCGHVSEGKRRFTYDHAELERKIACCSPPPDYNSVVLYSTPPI
Dual specificity tyrosine-phosphorylation-regulated kinase 3 (Homo sapiens), sequence (O43781 whole entry): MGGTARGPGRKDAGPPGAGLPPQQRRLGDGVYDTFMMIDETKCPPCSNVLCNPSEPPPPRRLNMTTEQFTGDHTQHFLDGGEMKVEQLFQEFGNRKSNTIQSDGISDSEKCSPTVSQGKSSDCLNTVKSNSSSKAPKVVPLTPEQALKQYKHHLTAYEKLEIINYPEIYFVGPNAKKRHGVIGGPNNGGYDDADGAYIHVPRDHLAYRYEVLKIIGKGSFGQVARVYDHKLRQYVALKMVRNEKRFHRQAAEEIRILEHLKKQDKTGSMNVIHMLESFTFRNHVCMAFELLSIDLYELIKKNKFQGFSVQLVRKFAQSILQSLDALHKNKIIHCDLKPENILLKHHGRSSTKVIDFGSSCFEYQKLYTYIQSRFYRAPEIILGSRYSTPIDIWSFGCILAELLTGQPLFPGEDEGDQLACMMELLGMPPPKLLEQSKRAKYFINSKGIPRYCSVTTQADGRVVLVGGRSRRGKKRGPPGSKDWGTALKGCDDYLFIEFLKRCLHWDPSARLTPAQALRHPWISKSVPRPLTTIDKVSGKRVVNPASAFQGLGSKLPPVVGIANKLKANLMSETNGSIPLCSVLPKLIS
Serine/threonine-protein kinase Nek7 (Homo sapiens), sequence (Q8TDX7 whole entry, looked up, the tested form may be a part): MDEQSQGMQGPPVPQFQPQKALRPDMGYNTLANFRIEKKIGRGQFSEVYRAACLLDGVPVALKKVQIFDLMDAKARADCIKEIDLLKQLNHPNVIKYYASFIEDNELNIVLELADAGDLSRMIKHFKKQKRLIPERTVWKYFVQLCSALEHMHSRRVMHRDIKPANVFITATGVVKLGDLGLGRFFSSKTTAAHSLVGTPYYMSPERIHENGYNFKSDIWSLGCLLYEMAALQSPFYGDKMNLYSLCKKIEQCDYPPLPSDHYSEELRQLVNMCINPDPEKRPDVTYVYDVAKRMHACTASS
Testis-specific serine/threonine-protein kinase 2 (Homo sapiens), sequence (Q96PF2 whole entry, the tested form may be a part): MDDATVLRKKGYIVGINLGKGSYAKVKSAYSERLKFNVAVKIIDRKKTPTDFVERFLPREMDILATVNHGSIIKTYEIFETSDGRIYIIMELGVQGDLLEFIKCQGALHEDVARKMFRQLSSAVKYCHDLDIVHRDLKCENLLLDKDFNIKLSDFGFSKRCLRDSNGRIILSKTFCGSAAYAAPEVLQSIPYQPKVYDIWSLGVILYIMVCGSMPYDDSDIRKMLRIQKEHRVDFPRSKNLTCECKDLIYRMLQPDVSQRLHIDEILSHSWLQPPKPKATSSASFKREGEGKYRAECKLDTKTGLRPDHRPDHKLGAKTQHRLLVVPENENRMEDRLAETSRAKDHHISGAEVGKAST

## CNC(=O)Nc1ccc(-c2nc(N3CC4CCC(C3)O4)c3cnn(C4CCC5(CC4)OCCO5)c3n2)cc1
[1]
  inhibition at 10 µM: 100%
[2]
  IC50: 50 nM
[3]
  Activity: 100%
[4]
  Activity: Active
[5]
  Activity: Active
[6]
  inhibition: -1%
[7]
  inhibition at 10 µM: 100%
[8]
  inhibition: 1%
[9]
  inhibition: 12%
[10]
  inhibition: -3%
[11]
  inhibition: Active
[12]
  inhibition: 2%
[13]
  inhibition: 1%
[14]
  Activity: Active
[15]
  Activity: inactive
[16]
  IC50: 12 nM
[17]
  inhibition: -1%
[18]
  IC50: 100 nM
[19]
  inhibition at 0.3 µM: ~50%
[20]
  Activity: Active
[21]
  inhibition: 11%
[22]
  inhibition: 8%
[23]
  inhibition: 4%
[24]
  inhibition: 5%
[25]
  inhibition: 7%
[26]
  inhibition: 15%
[27]
  IC50: 300 nM
